The values that follow come from US20050009772A1, “Methods and compositions for the treatment of glaucoma and other retinal diseases” (The Regents of the University of California, priority 2003, published 2005).

In one assay the test system is HSC70. Put plainly: Western blot for HSC70 in enriched RGC fraction after systemic administration of GGA (Experiment 1). Conditions: GGA 200 mg/kg daily i.p. 1, 3, 7 days vs control groups. Format: in vivo, rat. Here is the method: Three experiments are summarized here, and details are provided in the subsequent sections. […] For Western blotting, twelve rats were equally divided into 6 groups. […] Enriched RGC fraction was harvested from 2 retinas of each group and used for Western blot analysis. The same experiment for isolation of RGCs and Western blotting was repeated with the other 2 retinas-from each group.
GGA was a gift from Esai Co, Ltd (Tokyo, Japan). […] Saline-vehicle was prepared and administered in the same fashion in vehicle-treated control groups.
A previously described method was modified to partially purify RGCs from other retinal cells in rat retinas.38 Briefly, two dissected rat retinas from each subgroup were washed in 2.5 ml of calcium- and magnesium-free phosphate buffered saline (PBS) at pH 7.4, and incubated in 1.25 ml of PBS containing 0.5 mg/ml trypsin and 0.01% deoxyribonuclease for 15 minutes at 37° C. […] The cells were then resuspended in 400 μl of MEM buffer, and the protein concentration in the cell suspension was measured with a bicinchoninic acid (BCA) protein assay kit (Pierce, Rockford, Ill.).
The membrane was blocked by incubation in 0.1% Tween-20 in 100 mM Tris-buffered saline containing 10% nonfat dried milk for 1 hour. […] The immunoreactive bands were detected by chemiluminescence with an enhanced chemiluminescence Western blot reagent (Amersham Pharmacia).
A general note: In western blotting, separated proteins are transferred to a membrane and probed.

For assay [1], the system named is TUNEL positive cells in the RGCL. Description: TUNEL analysis of RGCL after 1 week of IOP elevation (Experiment 3). Format: in vivo, rat.
Method: Experiment 3 was performed to investigate the inhibition of apoptosis with GGA administration after 1 week of IOP elevation (n=56).
Rats were anesthetized with intramuscular injections of 0.8 ml/kg of the anesthetic cocktail described above. […] At the end of the procedure, Tobrex ophthalmic ointment (tobramycin 0.3%; Alcon, Fort Worth, Tex.) was applied topically. Five days after intracameral injection of India ink, a dark band at the limbus was noted due to the aggregation of carbon particles in the trabecular meshwork.38 After anesthesia, approximately 200 laser burns were delivered ab externo to the pigmented trabecular band at laser settings of 200 μm diameter, 200 mW power and 0.2 seconds duration. Three weeks after the first laser treatment, another trabecular laser photocoagulation was performed without further injection of ink.
Four-μm thick paraffin embedded sections along the vertical meridian of the optic nerve head were collected and a minimum of 6 retinal sections (8 μm apart) per eyeball was used for counting the number of TUNEL positive cells in the RGCL. Only full length and undamaged retinal sections without oblique orientation were used. The procedures described in the ApopTag Peroxidase In Situ Apoptosis Detection Kit (Intergen Co., Purchase, N.Y.) were followed and diaminobenzidine (Sigma, St. Louis, Mo.) was used as a color substrate. Counting was performed by two masked investigators with light microscopy, and averaged.
Assay [2] has as its system retinal ganglion cells (RGCs). Put plainly: Density of DTMR-labeled RGCs in rat glaucoma model (Experiment 2). Format: in vivo. Here is the method:
GGA was then given twice a week at the same dose until euthanasia. Sustained elevation of intraocular pressure (IOP) was maintained by performing trabecular laser photocoagulation three weeks after the first photocoagulation. […] IOP and body weight were measured once a week. […] Rats were anesthetized with intramuscular injections of 0.8 ml/kg of the anesthetic cocktail described above. A previously published procedure was modified to produce chronic moderately elevated IOP unilaterally, while the untreated contralateral eye served as the comparative control.40 Animals were injected intracamerally with 10 μl of 35% India ink (Becton Dickinson, Cockeysville, Md.) in 0.01 M PBS after removing a similar volume of aqueous. At the end of the procedure, Tobrex ophthalmic ointment (tobramycin 0.3%; Alcon, Fort Worth, Tex.) was applied topically. Five days after intracameral injection of India ink, a dark band at the limbus was noted due to the aggregation of carbon particles in the trabecular meshwork.38 After anesthesia, approximately 200 laser burns were delivered ab externo to the pigmented trabecular band at laser settings of 200 μm diameter, 200 mW power and 0.2 seconds duration. Three weeks after the first laser treatment, another trabecular laser photocoagulation was performed without further injection of ink. […] A cross section of the optic nerve was made with the needle knife through the opening of the optic nerve sheath, with care not to damage the adjacent blood supply. DTMR crystals were applied to the proximal cut surface of the optic nerve to label RGCs by fast retrograde axonal transport. After euthanasia and enucleation, the retinas were dissected and flattened with four radial cuts (superotemporal, inferotemporal, superonasal, and inferonasal). They were placed with vitreal side up on glass slides, dried in the dark at room temperature overnight and mounted. The retinas were examined with a fluorescence microscope (Axioplan; Carl Zeiss, Oberkochen, Germany) equipped with a filter that permits visualization of rhodamine fluorescence (excitation filter BP 546, barrier filter LP590; Carl Zeiss). The counting of RGCs was conducted by 2 examiners in a masked fashion. […] Each rectangular area measured 0.475 mm×0.362 mm and the total counted area corresponded to approximately 3.1% of each total retinal area. Data are expressed as number of RGCs per mm2.

Where [3] appears, read: contralateral controls (normal IOP).
Where [4] appears, read: retinas with IOP elevation, 5 weeks.

Entries after “also recorded” stand apart in the source; their conditions may differ.

Regarding Geranylgeranylacetone [GGA], the “immunoreactivity against HSC70 in RGCs (immunoblot)” value with HSC70 was “no change in HSC70 expression; also recorded: no detectable difference”. Besides, in assay [1] (1 week of IOP elevation), the “inhibition of cell death” value is 57% and the “number of TUNEL positive cells in the RGCL” value stood at 0.53±0.11 per retinal section. Also, the “effect on number of TUNEL positive cells (in words)” value in assay [1] (elevated IOP retinas, 1 week, quercetin = co-administered with GGA) is “significantly reduced”. In addition, in assay [2] (setting [3]), the “density of DTMR-labeled RGCs” value was 1077±48 cells/mm2 and the “density of DTMR-labeled RGCs vs vehicle-treated controls (in words)” value is on record as “no statistical significance”. In assay [2] (setting [4]), the “density of DTMR-labeled RGCs” value is 1044±36 cells/mm2 and the “more DTMR-labeled cells preserved compared with vehicle” value is reported as 57%. For the same substance, the “effect on density of DTMR-labeled RGCs (in words)” value in assay [2] (retinas with IOP elevation, 5 weeks, quercetin = co-administered with GGA) is given as “higher density; also recorded: partial”.
